Assay results: patent US5166204A, “Isoindole derivatives and salts thereof and antitumor agent comprising the same” (Toyama Chemical Co., Ltd., priority 1989, dated 1992)
In brackets after ≈: the same amount, converted by molar mass. Where two headings read alike, the source gives them in different places.

Tested on: HeLa S-3 cells
Test: HeLa S-3 cell growth inhibition test
Format: cell-based
Settings: Homo sapiens, 96 h, read-out: minimum growth inhibition concentration (MIC)
Protocol: (a) HeLa S-3 Cell Growth Inhibition Test
A test compound was appropriately diluted with a liquid medium (a minimum essential medium containing a 10% fecal calf serum). The resulting liquid was poured into each well of a 96-well micro titer plate, in an amount of 0.1 ml/well. Then, HeLa S-3 cells were diluted with the same liquid medium so that the cell concentration became 2×10^4 cells/ml, and the resulting liquid was poured into each well of the above plate in an amount of 0.1 ml/well. The resulting plate was allowed to stand in a CO2 gas incubator of 37° C. for 4 days, to effect incubation. After the incubation, the supernatant liquid in each well was removed and fixation by ethanol was effected for 10 minutes. The fixed cells were tinted with a Giemsa's staining solution to determine the minimum growth inhibition concentration (MIC) of test compound for HeLa S-3 cells.

[1] = HeLa S-3 cells, 37° C., 4 days, Giemsa's staining

| SMILES | MIC [1] [µg/mL] | MIC [µg/mL] |
| --- | --- | --- |
| COc1ccc(Oc2cc3c(c4c2[nH]c2ccc(O)cc24)C(=O)N(CCN(C)C)C3=O)cc1 [compound 85] | 0.08 (≈ 0.18 µM) |  |
| COc1ccc2[nH]c3c(C)c4c(c(C)c3c2c1)C(=O)N(CCN(C)C)C4=O [compound 99] | 0.8 (≈ 2.19 µM) |  |
| CCn1c2ccc(OC)cc2c2c3c(ccc21)C(=O)N(CCN(C)C)C3=O [compound 20] | 1.56 (≈ 4.27 µM) |  |
| CC(=O)Oc1ccc2[nH]c3c(C)cc4c(c3c2c1)C(=O)N(CCN(C)C)C4=O [compound 45] | 0.16 (≈ 0.422 µM) |  |
| CC(C)c1cc2c(c3c1[nH]c1ccc(O)cc13)C(=O)N(CCN(C)C)C2=O [compound 52] | 0.4 (≈ 1.09 µM) |  |
| Cc1c2c(c(C)c3c1[nH]c1ccc(O)cc13)C(=O)N(CCN(C)C)C2=O [compound 100] | 2.5 (≈ 7.11 µM) |  |
| CN(C)CCN1C(=O)c2ccc3sc4ccccc4c3c2C1=O [compound 66] | 2.5 (≈ 7.71 µM) |  |
| Cc1cc2c(c3c1[nH]c1ccc(OC(=O)N4CCCCC4)cc13)C(=O)N(CCN(C)C)C2=O [compound 44] |  | 0.8 (≈ 1.78 µM) |
| Cc1cc2c(c3c1[nH]c1ccc(OC(=O)N4CCC(N5CCCCC5)CC4)cc13)C(=O)N(CCN(C)C)C2=O [compound 55] |  | 2.5 (≈ 4.7 µM) |
| Cc1cc2[nH]c3ccc(O)cc3c2c2c1C(=O)N(CCN(C)C)C2=O [compound 25] | 0.04 (≈ 0.119 µM) |  |
| CN(C)CCN1C(=O)c2cc(C(F)(F)F)c3[nH]c4ccc(O)cc4c3c2C1=O [compound 67] | 2 (≈ 5.11 µM) |  |
| Cc1cc2c(c3c1[nH]c1ccc(O)cc13)C(=O)N(CCN1CCOCC1)C2=O [compound 88] | 2.5 (≈ 6.59 µM) |  |
| COc1ccc2[nH]c3c(C)cc4c(c3c2c1)C(=O)N(CCN)C4=O [compound 65] | 0.63 (≈ 1.95 µM) |  |
| CSc1cc2c(c3c1[nH]c1ccc(O)cc13)C(=O)N(CCN(C)C)C2=O [compound 77] | 0.63 (≈ 1.71 µM) |  |
| CN(C)CCN1C(=O)c2cc(C3(C)CC3)c3[nH]c4ccc(O)cc4c3c2C1=O [compound 73] | 0.8 (≈ 2.12 µM) |  |
| CCc1cc2[nH]c3ccccc3c2c2c1C(=O)N(CCN(C)C)C2=O [compound 4] | 0.2 (≈ 0.596 µM) |  |
| Cc1cc2c(c3c1[nH]c1ccc(O)cc13)C(=O)N(CCN1CCN(C)CC1)C2=O [compound 90] | 1.56 (≈ 3.97 µM) |  |
| Cc1cc2c(c3c1S(=O)(=O)c1ccccc1-3)C(=O)N(CCN(C)C)C2=O [compound 48] | 2.5 (≈ 6.75 µM) |  |
| CCOc1cc2c(c3c1[nH]c1ccc(O)cc13)C(=O)N(CCN(C)C)C2=O [compound 80] | 0.08 (≈ 0.218 µM) |  |
| Cc1c2c(cc3c1[nH]c1ccccc13)C(=O)N(CCN(C)C)C2=O [compound 97] | 3.13 (≈ 9.74 µM) |  |
| COc1ccc2[nH]c3c(C)cc4c(c3c2c1)C(=O)N(CCN(C)C)C4=O [compound 16] | 0.2 (≈ 0.569 µM) |  |

| SMILES | MIC [1] [µg/mL] | MIC [µg/mL] |
| --- | --- | --- |
| CN(C)CCN1C(=O)c2cc(Oc3ccccc3)c3[nH]c4ccc(O)cc4c3c2C1=O [compound 78] | 0.04 (≈ 0.0963 µM) |  |
| CN(C)CCN1C(=O)c2cc(Oc3ccc(O)cc3)c3[nH]c4ccc(O)cc4c3c2C1=O [compound 86] | 0.16 (≈ 0.371 µM) |  |
| Cc1cc(O)cc2c1[nH]c1ccc3c(c12)C(=O)N(CCN(C)C)C3=O [compound 46] | 3.13 (≈ 9.28 µM) |  |
| CN(C)CCN1C(=O)c2ccc3[nH]c4cc(Cl)ccc4c3c2C1=O [compound 8] | 3.13 (≈ 9.16 µM) |  |
| CN(C)CCN1C(=O)c2ccc3[nH]c4ccc(F)cc4c3c2C1=O [compound 11] | 3.13 (≈ 9.62 µM) |  |
| Cc1cc2c(c3c4ccccc4n(C)c13)C(=O)N(CCN(C)C)C2=O [compound 6] | 0.8 (≈ 2.39 µM) |  |
| CCN(C)CCN1C(=O)c2cc(C)c3[nH]c4ccc(O)cc4c3c2C1=O [compound 81] | 0.16 (≈ 0.455 µM) |  |
| CN(C)CCN1C(=O)c2cc3[nH]c4cccc(F)c4c3cc2C1=O [compound 96] | 6.25 (≈ 19.2 µM) |  |
| Cc1cc2c(c3c1[nH]c1ccc(O)cc13)C(=O)N(CCN)C2=O [compound 68] | 0.4 (≈ 1.29 µM) |  |
| COc1ccc2[nH]c3cc(OC)c4c(c3c2c1)C(=O)N(CCN(C)C)C4=O [compound 36] | 0.8 (≈ 2.18 µM) |  |
| CCCc1cc2c(c3c1[nH]c1ccc(O)cc13)C(=O)N(CCN(C)C)C2=O [compound 51] | 0.2 (≈ 0.547 µM) |  |
| Cc1c2c(c(C)c3c1[nH]c1ccccc13)C(=O)N(CCN(C)C)C2=O [compound 98] | 0.8 (≈ 2.39 µM) |  |
| CNCCN1C(=O)c2cc(C)c3[nH]c4ccc(OC)cc4c3c2C1=O [compound 64] | 0.63 (≈ 1.87 µM) |  |
| Cc1c2c(c3c([nH]c4ccccc43)c1C)C(=O)N(CCN(C)C)C2=O [compound 5] | 0.125 (≈ 0.373 µM) |  |
| COc1ccc2[nH]c3c(-c4ccc(F)cc4F)cc4c(c3c2c1)C(=O)N(CCN(C)C)C4=O [compound 79] | 1.6 (≈ 3.56 µM) |  |
| COc1ccc2c(c1)c1c3c(ccc1n2C)C(=O)N(CCN(C)C)C3=O [compound 19] | 0.4 (≈ 1.14 µM) |  |
| Cc1c2c(c3c([nH]c4ccc(O)cc43)c1C)C(=O)N(CCN(C)C)C2=O [compound 26] | 0.016 (≈ 0.0455 µM) |  |
| Cc1cc2c(c3c1[nH]c1ccc(O)cc13)C(=O)N(CCN(C(C)C)C(C)C)C2=O [compound 53] | 0.8 (≈ 2.03 µM) |  |
| CN(C)CCN1C(=O)c2cc(-c3ccccc3)c3[nH]c4ccccc4c3c2C1=O [compound 7] | 0.8 (≈ 2.09 µM) |  |
| CCCCc1cc2c(c3c1[nH]c1ccc(O)cc13)C(=O)N(CCN(C)C)C2=O [compound 60] | 0.1 (≈ 0.264 µM) |  |
| C=Cc1cc2c(c3c1[nH]c1ccc(OC)cc13)C(=O)N(CCN(C)C)C2=O [compound 92] | 0.32 (≈ 0.881 µM) |  |

| SMILES | MIC [1] [µg/mL] | MIC [µg/mL] |
| --- | --- | --- |
| COc1ccc2[nH]c3ccc4c(c3c2c1)C(=O)N(CCN1CCN(C)CC1)C4=O [compound 34] | 3.13 (≈ 7.98 µM) |  |
| COCc1cc2c(c3c1[nH]c1ccc(O)cc13)C(=O)N(CCN(C)C)C2=O [compound 57] | 1 (≈ 2.72 µM) |  |
| COc1cc2c(c3c1[nH]c1ccc(OCc4ccccc4)cc13)C(=O)N(CCN(C)C)C2=O [compound 37] | 0.2 (≈ 0.451 µM) |  |
| Cc1cc2c(c3c1sc1ccccc13)C(=O)N(CCN(C)C)C2=O [compound 47] | 0.2 (≈ 0.591 µM) |  |
| Cc1ccc2[nH]c3ccc4c(c3c2c1)C(=O)N(CCN(C)C)C4=O [compound 12] | 3.13 (≈ 9.74 µM) |  |
| Cc1cc2c(c3c1[nH]c1ccc(O)cc13)C(=O)N(CC[N+](C)(C)C)C2=O [compound 94] | 6.25 |  |
| CN(C)CCN1C(=O)c2c(O)cc3[nH]c4ccc(O)cc4c3c2C1=O [compound 35] | 2 (≈ 5.89 µM) |  |
| CN(C)CCN1C(=O)c2ccc3c(c2C1=O)c1cc(Cl)ccc1n3C [compound 10] | 0.8 (≈ 2.25 µM) |  |
| Cc1cc2c(c3c1[nH]c1ccc(OC(=O)N4CCOCC4)cc13)C(=O)N(CCN(C)C)C2=O [compound 50] |  | 3.13 (≈ 6.95 µM) |
| CN(C)CCN1C(=O)c2cc(O)c3[nH]c4ccc(O)cc4c3c2C1=O [compound 41] | 0.8 (≈ 2.36 µM) |  |
| CCn1c2ccc(O)cc2c2c3c(ccc21)C(=O)N(CCN(C)C)C3=O [compound 29] | 3.13 (≈ 8.91 µM) |  |
| CN(C)CCN1C(=O)c2cc(C(C)(C)C)c3[nH]c4ccc(O)cc4c3c2C1=O [compound 54] | 0.31 (≈ 0.817 µM) |  |
| O=C1c2ccc3[nH]c4ccc(O)cc4c3c2C(=O)N1CCN1CCCCC1 [compound 33] | 3.13 (≈ 8.61 µM) |  |
| COc1cc2c(cc1Br)[nH]c1c(CN(C)C)cc3c(c12)C(=O)N(CCN(C)C)C3=O [compound 93] | 3.2 (≈ 6.76 µM) |  |
| COc1ccc2c(c1)[nH]c1ccc3c(c12)C(=O)N(CCN(C)C)C3=O [compound 14] | 1.56 (≈ 4.62 µM) |  |
| CN(C)CCN1C(=O)c2c(-c3ccncc3)cc3[nH]c4ccc(O)cc4c3c2C1=O [compound 84] | 2.5 (≈ 6.24 µM) |  |
| CNC(=O)n1c2ccc(O)cc2c2c3c(cc(C)c21)C(=O)N(CCN(C)C)C3=O [compound 95] | 1.56 (≈ 3.96 µM) |  |
| Cc1c2c(c3c([nH]c4ccc(OC(=O)N5CCC(N6CCCCC6)CC5)cc43)c1C)C(=O)N(CCN(C)C)C2=O [compound 75] |  | 0.08 (≈ 0.147 µM) |
| CCN(CC)CCN1C(=O)c2cc(C)c3sc4ccc(O)cc4c3c2C1=O [compound 62] | 0.2 (≈ 0.523 µM) |  |
